In US10195195B2, “Selective histamine H4 receptor antagonists for the treatment of vestibular disorders” (INSERM (Institut National de la Sante de la Recherche …, priority 2008, dated 2019):
“Also recorded” adds a separate entry of the source. Like-named read-outs stand apart in the source and are kept apart here.

Columns and labels:
[1] = test system: vestibular ganglion neurons; test: Patch-clamp (current-clamp) recording of depolarization-induced firing volley and membrane potential in cultured vestibular ganglion neurons; assay type: cell-based, Wistar rats; settings: for IC50: cultured rat vestibular neurons; for inhibition at 0.1 µM: 100 nM (0.1 μM); for variation of membrane potentials (qualitative): FIG. 4, high concentrations; for reversibility of the firing inhibition during rinse with control medium: perfusion of control medium after drug; for depolarization of the neurons: 5 mM
Description: Cell culture: Vestibular ganglion neurons were explanted aseptically from 2 to 6 days-old Wistar rats (Centre d'Elevage Janvier, Le Genest-Saint-Isle, France). All procedures were carried out in accordance to the French/European Communities Council Directive 86/609/EEC. The brainstem was hemi-sectioned and the eighth nerve was followed up to the level of the otocyst and cut just rostral to it.
The vestibular ganglia were excised, placed in Leibovitz medium (L15, Invitrogen, Cergy Pontoise, France), and dissociated by enzymatically (collagenase 0.75 mg/ml, dispase 1 mg/ml and dnase 0.75 mg/ml, 15 min at 25° C.). Enzymes were washed with Tyrode solution without Ca^2+ and Mg^2+, and the ganglion neurons were gently dissociated in culture medium with a pipette. The neurons were plated onto culture dishes previously coated with 5 μg/ml poly-L-ornithine, 10 μg/ml laminin and subsequently filled with 0.5 ml of a 1:1 mixture of Dulbecco's modified eagle medium and Ham's F-12 medium (Invitrogen) supplemented with 2% N2 nutrient glucose (5 g/l), glutamine (1.5 mM), sodium bicarbonate (1.1 g/l), HEPES buffer (15 mM, pH 7.4), AraC 2 μM, brain-derived neurotrophic factor 10 μg/ml and 1% penicillin/streptomycin. The low density cultures were then maintained at 37° C. in 5% CO2 for 7 to 8 days prior patch-clamp experiments.
Patch-clamp recordings: Whole-cell (current-clamp configuration) recording of responses were obtained using an Axopatch 200B amplifier (Axon Instruments; Molecular Devices Corp., Sunnyvale, Calif., USA). The extracellular solution contained (in mM): NaCl 135, HEPES 10, glucose 10, MgCl2 1, KCl 5, and CaCl2 4, pH 7.35 (with NaOH). Recording pipettes (2-3 MΩ) were drawn from microhematocrit tubes (Modulohm I/S Herlev, Denmark) and filled with the following solution (in mM): KCl 135, HEPES 10,glucose 10, NaCl5, EGTA 5, Mg-ATP3, GTP-Na 1, pH 7.35 (with KOH). The osmolarity of all solutions was set to 300 mOsm/I^−1. Experimental parameters and data acquisition were controlled with a PC computer and a Tecmar Labmaster analogue interface (Axon instruments, CA). Voltage transients were recorded from neurons presenting resting potentials lying between −45 and −65 mV. Trains of action potentials (APs) were elicited using 1 s, 200 pA depolarizing pulses applied every 6.5 s. Current signals were filtered at 10 KHz, digitized and stored using pCLAMP software (v 10.2, Axon instruments).
Drug application : The control and test solutions were applied using a multiple capillary perfusion system (flow rate 500 μl/min). After each application of the tested drug, the cells were washed with control buffer.
Data analysis and statistical methods : The results are expressed as means±S.E.M. The number of sample size (n) given is the number of neurons tested. Variations of the membrane potential and the number of APs were analysed using pCLAMP software (v10.2, Axon instruments). Drug concentration-effect relationships were fitted with a Hill equation of the form I(x)=A*xn/(IC50n+xn).

[2] = biological target: T1, human H3 receptor (Homo sapiens, UniProt Q9Y5N1); settings: radioligand, transfected cell membranes; cited from earlier work
T1 construct: expressed in transfected cells; host or cells: SK-N-MC or HEK293 T

[3] = test system: peripheral vestibular receptors isolated from axolotl; settings: cited from earlier work
[4] = Neuron, dose-response fitted with Hill equation, read-out: IC50 of inhibition of the firing volley induced by standard depolarization
[5] = Rattus norvegicus, Neuron, tonic discharge

T1 sequence (Q9Y5N1 whole entry): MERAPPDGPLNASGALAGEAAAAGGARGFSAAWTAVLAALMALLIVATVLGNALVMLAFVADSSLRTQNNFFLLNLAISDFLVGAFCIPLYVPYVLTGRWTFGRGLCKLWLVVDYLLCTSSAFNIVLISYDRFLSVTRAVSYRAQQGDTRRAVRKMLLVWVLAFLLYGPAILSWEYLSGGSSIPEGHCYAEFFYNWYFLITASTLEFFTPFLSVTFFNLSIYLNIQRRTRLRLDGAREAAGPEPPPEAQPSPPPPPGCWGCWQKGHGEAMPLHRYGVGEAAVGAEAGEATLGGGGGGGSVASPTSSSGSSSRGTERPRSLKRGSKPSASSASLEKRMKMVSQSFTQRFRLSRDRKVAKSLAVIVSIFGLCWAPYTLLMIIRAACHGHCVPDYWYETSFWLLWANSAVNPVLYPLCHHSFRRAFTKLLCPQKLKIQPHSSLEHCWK

Structure (SMILES): CN1CCN(C(=O)c2cc3cc(Cl)ccc3[nH]2)CC1 [JNJ 7777120, 1-[(5-chloro-1H-indol-2-yl)carbonyl]-4-methylpiperazine]
- IC50 [1, 4]: 10 µM
- inhibition at 0.1 µM [1, 5]: 3%
- inhibition at 1 µM [1, 5]: 29%
- inhibition at 10 µM [1, 5]: 41%
- membrane depolarisation ([1]; high concentration application (1 mM)): did not induce membrane depolarisation

Structure (SMILES): CN1CCN(C(=O)c2nc3cc(Cl)ccc3[nH]2)CC1 [VUF 6002, 1-[(5-chloro-1H-benzimidazol-2-yl)carbonyl]-4-methylpiperazine]
- action potentials intrinsic properties (spike amplitude, time to peak, rise and decay time constants) [1]: not affected
- membrane hyperpolarization ([1]; 100 μM): about −3 mV
- inhibition of the firing ([1]; 100 μM, tonic discharge): 90%
- effect on firing, phasic discharge pattern ([1]; 1 mM, neurons with phasic discharge, n=6): completely abolished the firing
- variation of membrane potentials (qualitative) [1]: did not induce membrane variations
- IC50 [1, 4]: 5.8 µM
- inhibition at 0.1 µM [1, 5]: 20%
- inhibition at 1 µM [1, 5]: 37%
- inhibition at 10 µM [1, 5]: 55%
- inhibition at 100 µM ([1]; Rattus norvegicus, Neuron, 100 μM, tonic discharge): 91%
- concentration of maximum inhibition of the firing ([1]; dose-response between 1 nM and 1 mM): around 100 μM
- reversibility of the firing inhibition during rinse with control medium [1]: reversed during rinse with control medium; also recorded: totally reversed

Structure (SMILES): CNCCc1cnc[nH]1 [[^3H]N-a-methyl histamine]
- Kd [2]: 0.001 µM

Structure (SMILES): CNCCc1ccccn1.Cl.Cl [betahistine, betahistine dihydrochloride]
- concentration of maximum effect on afferent discharge [3]: around 10 mM
- IC50 ([3]; read-out: IC50 of inhibition of the afferent discharge): 800 µM
- effect on membrane potential ([1]; 2 mM application): not affected
- depolarization of the neurons ([1]; dihydrochloride): about 15 mV
- depolarization of the neurons ([1]; listed as BH, dihydrochloride): 14.3±4.7 mV
- variation of membrane potentials (qualitative) ([1]; dihydrochloride): pronounced depolarisation of the neurons
- variation of membrane potentials (qualitative) ([1]; listed as betahistidine, dihydrochloride): strong depolarisations at high concentrations
- IC50 ([1]; dose-response relationship, read-out: IC50 of inhibition of the discharge volley): 2200 µM
- reversibility of the firing inhibition during rinse with control medium ([1]; dihydrochloride): rapidly reversed during rinse with control medium
- reversibility of the firing inhibition during rinse with control medium ([1]; listed as BH, dihydrochloride): rapidly abolished
- concentration of maximum inhibition of the discharge volley ([1]; standard depolarization stimulation): around 10 mM

Structure (SMILES): O=C(O)/C=C\C(=O)O.S=C(NC1CCCCC1)N1CCC(c2c[nH]cn2)CC1 [thioperamide, N-cyclohexyl-4-(1H-imidazol-4-yl)-1-piperidinecarbothioamide maleate]
- membrane depolarisation at low concentration ([1]; 0.01 to 10 μM): without depolarizing the neurons
- variation of membrane potentials (qualitative) ([1]; maleate): strong depolarisations at high concentrations; also recorded: strong membrane depolarisations; also recorded: pronounced depolarisation of the neurons
- IC50 [1, 4]: 100 µM
- inhibition at 0.1 µM [1, 5]: 10%
- inhibition at 10 µM [1, 5]: 24%
- inhibition at 500 µM ([1]; Rattus norvegicus, Neuron, 500 μM, read-out: inhibition of the firing (blocked activity)): 87%
- reversibility of the firing inhibition during rinse with control medium [1]: only slightly reversible
